According to patent US20030198941A1, “Method for making an HIV vaccine” (priority 2000, published 2003):
“And” between values parts separate entries of the source, which are not always exact repeats. Equal values may be shown once. Read-outs that look alike come from different tables or passages of the source.

How the values were obtained:
[1] = target: rhesus MHC class I molecule Mamu-A*01 (rhesus macaque); assay: competition with 125I-labeled […] for Mamu-A*01; relative to […]
[2] = target: rhesus MHC class I molecule Mamu-A*01 (rhesus macaque); assay: competition with 125I-labeled […] for Mamu-A*01; (1.0-relative binding average)x100
[3] = tested on: epitope-specific CD8+ PBMC of SIV-infected animals; format: cell-based, rhesus macaque; details: for avidity of CTL response: PBMC specific for late escaping epitopes; for EC50: read-out: ½maximal IFN-γ release (peptide concentration)
[4] = tested on: Tat SL8- and Gag CM9-specific CTL lines; assay: 51Cr-release cytotoxicity assay with peptide dilutions, in vitro CTL lines; format: cell-based, rhesus macaque; details: CTL lines generated with high (1 μM) and low (1 nM) peptide; read-out: ½maximal specific lysis (peptide concentration)
[5] = tested on: epitope-specific CTL lines; assay: Intracellular IFN-γ staining (ICS) with peptide dilutions, in vitro CTL lines; format: cell-based, rhesus macaque; details: for avidity of CTL response: CTL lines against acute escaped epitopes
[6] = tested on: CTL lines stimulated with the SL8 index peptide; assay: CTL analyses of SL8-stimulated T-cell lines against index and variant peptides; format: cell-based, rhesus macaque; details: E:T ratio 25:1, three peptide dilutions
Method: FIG. 3 is a set of six graphs describing CTL analyses of CD8-positive T-lymphocyte cell lines stimulated with SL8 peptide. Cell lines were stimulated with the index peptide (SL8) and autologous B-LCL. After 2 weeks in culture, these T-cell lines were used in CTL analyses at an Effector:Target (E:T) ratio of 25:1 with the index peptide and the variants. Three different dilutions of peptides were tested.
CTL cultures were established from peripheral blood samples of SIV-infected rhesus macaques drawn in EDTA tubes and CTL were cultured and assayed as previously described (Evans, D. T., et al., supra, 1999).

[7] = tested on: rhesus MHC class I molecule Mamu-A*01; assay: Mamu-A*01 peptide binding assay (inhibition of binding of a radiolabeled probe peptide); design: species or system rhesus macaque; details: for % Binding reduction: (1.0-relative binding average)x100, versus index peptide STPESANL; for IC50: soluble Mamu-A*01; for Relative Binding Average: relative to the binding affinity of Tat28-35 STPESANL to Mamu-A*01
Method: Quantitative assays for the binding of peptides to soluble Mamu-A*01 molecules on the basis of the inhibition of binding of a radiolabeled standard probe peptide to detergent-solubilized MHC molecules were performed as previously described (Allen, T. M., et al., J. Immunol. 160:6062-6071, 1998). A position 1 C→A analog of the SIV gag 181-190 peptide ([…]) was utilized as the radiolabeled probe. In the case of competitive assays, the concentration of peptide yielding 50% inhibition of the binding of the radiolabeled probe peptide was calculated. Peptides were initially tested at one or two high doses. The IC50 of peptides yielding positive inhibition were then determined in subsequent experiments, in which two to six further dilutions were tested, as necessary. Since under the conditions to be utilized, where [label]<[MHC] and IC50 ≧[MHC], the measured IC50 values are reasonable approximations of the true Kd values. Each competitor peptide was tested in two to four completely independent experiments. As a positive control, in each experiment the unlabeled version of the radiolabeled probe was tested and its IC50 measured.

[8] = target: rhesus MHC class I molecule Mamu-A*01 (rhesus macaque)
[9] = competition against 125-labeled peptide ATPYDINQML
[10] = competition against 125-labeled peptide […]

Question: Which results are given for “Tat28-35 variant ------P (proline at P8) (peptide)”?
Answer: Relative Binding Average [1]: 0.009; % Binding reduction [2]: > 99%

Question: Which “avidity of CTL response” value ([3]; ICS) does the source give for ARRHRILDIYL [Nef_AL11] here?
Answer: Its value is “low avidity”.

Question: Which results are given for “Tat28-35 variant ------Q (glutamine at P8) (peptide)”?
Answer: Relative Binding Average [1]: 0.003; % Binding reduction [2]: > 99%

Question: Which results are given for CTPYDINQM [Gag CM9]?
Answer: EC50 [4]: 1 to 10 nM and 1 to 40 nM; EC50 [3]: 8 nM

Question: With “Tat28-35 variant ------R (arginine at P8) (peptide)” as the substance, how does the Relative Binding Average [1] read?
Answer: The Relative Binding Average was 0.003.

Question: And the % Binding reduction [2]?
Answer: Its % Binding reduction is > 99%.

Question: How did the “avidity of CTL response” value [5] turn out when YTSGPGIRY [YY9] was run?
Answer: Its value is “high avidity”.

Question: Which “CTL recognition / sensitizing targets for CTL lysis” value [6] does the source give for “variant of the Tat STPESANL epitope with leucine at P5 [----L--]” here?
Answer: Its value is “least efficient at sensitizing targets for CTL lysis”.

Question: And the “% Binding reduction” value [7]?
Answer: The value was 85%.

Question: What about the “% Binding reduction” value ([7]; listed as leucine at P5) of the same substance?
Answer: Its value is > 80%.

Question: What about the “% Binding reduction” value ([7]; listed as leucine substitution at P5) of the same substance?
Answer: The value was “more than 80%”.

Question: What about the IC50 [7, 9] of the same substance?
Answer: Its IC50 is 281 nM.

Question: And the “Relative Binding Average” value [7]?
Answer: Its value is 0.155.

Question: GLDKGLSSL [GL9] was tested. Which “avidity of CTL response” value [5] did it give?
Answer: Its value is “high avidity”.

Question: KRQQELLRL [Env_KL9] was tested. Which “avidity of CTL response” value ([3]; ICS) did it give?
Answer: Its value is “low avidity”.

Question: For STPESANL, which EC50 [4] is on record?
Answer: The EC50 was 0.05 to 0.1 nM.

Question: And the EC50 ([3]; epitope-specific PBMC, ICS)?
Answer: The EC50 was 0.11 nM.

Question: And the EC50 ([5]; CTL lines generated in vitro, read-out: ½maximal IFN-γ production (peptide concentration))?
Answer: The EC50 was < 0.5 nM.

Question: With “variant of the Tat STPESANL epitope with arginine at P8 [------R]” as the substance, how does the “% Binding reduction” value [7] read?
Answer: The value was >99%.

Question: What about the IC50 [7, 10] of the same substance?
Answer: The IC50 was 15100 nM.

Question: What about the “Relative Binding Average” value [7] of the same substance?
Answer: Its value is 0.003.

Question: How did the “avidity of CTL response” value ([3]; ICS) turn out when GDYKLVEI [Env_GI8] was run?
Answer: Its value is “low avidity”.

Question: Which “% Binding reduction” value [7] does the source give for “variant of the Tat STPESANL epitope with glutamine at P8 [------Q]” here?
Answer: Its value is >99%.

Question: What about the IC50 [7, 9] of the same substance?
Answer: The IC50 was 13200 nM.

Question: What about the “Relative Binding Average” value [7] of the same substance?
Answer: The value was 0.003.

Question: Which results are given for “variant of the Tat STPESANL epitope with proline at P8 [------P]”?
Answer: % Binding reduction [7]: >99%; IC50 [7, 10]: 4570 nM; Relative Binding Average [7]: 0.009

Question: Which “% Binding reduction” value [7] does the source give for “variant of the Tat STPESANL epitope with isoleucine at P2 [-I----]” here?
Answer: The value was >99%.

Question: What about the IC50 [7, 10] of the same substance?
Answer: Its IC50 is 4610 nM.

Question: What about the “Relative Binding Average” value [7] of the same substance?
Answer: The value was 0.009.

Question: “Tat28-35 variant ----L-- (leucine at P5) (peptide)” was tested. Which Relative Binding Average [1] did it give?
Answer: The Relative Binding Average was 0.155.

Question: And the % Binding reduction [2]?
Answer: The % Binding reduction was 85%.

Question: “Tat28-35 variant -I---- (isoleucine at P2) (peptide)” was tested. Which Relative Binding Average [1] did it give?
Answer: Its Relative Binding Average is 0.009.

Question: And the % Binding reduction [2]?
Answer: The % Binding reduction was > 99%.

Question: What does the source list for “variant of the Tat STPESANL epitope with proline at P1 [P------]”?
Answer: % Binding reduction [7]: 67%; % Binding reduction ([7]; listed as proline at P1): more than 50%; % Binding reduction ([7]; listed as proline substitution at P1): more than 50%; IC50 [7, 10]: 100 nM; Relative Binding Average [7]: 0.43

Question: For “Tat28-35 variant P------ (proline at P1) (peptide)”, which % Binding reduction [8] is on record?
Answer: Its % Binding reduction is 67%.

Question: What about the Relative Binding Average [1] of the same substance?
Answer: Its Relative Binding Average is 0.43.
